{"source": "ChEMBL document CHEMBL1152446", "about": "“Identification of an orally efficacious matrix metalloprotease 12 inhibitor for potential treatment of asthma” (J Med Chem, 2009)", "key": {"in vitro [1]": {"experiment": "in vitro", "conditions": "human, liver microsomes"}, "Collagenase 3": {"target": "Collagenase 3 (Homo sapiens, UniProt P45452)", "experiment": "Inhibition of human recombinant MMP13"}, "in vitro [2]": {"experiment": "in vitro", "conditions": "rat, liver microsomes"}, "[3]": {"experiment": "Metabolic stability in C57BL/6 mouse liver microsome assessed as half life", "assay_type": "ADME", "conditions": "liver microsomes"}, "[4]": {"target": "Macrophage metalloelastase MMP-12 (Homo sapiens) (UniProt P39900)", "sequence (P39900 whole entry, looked up)": "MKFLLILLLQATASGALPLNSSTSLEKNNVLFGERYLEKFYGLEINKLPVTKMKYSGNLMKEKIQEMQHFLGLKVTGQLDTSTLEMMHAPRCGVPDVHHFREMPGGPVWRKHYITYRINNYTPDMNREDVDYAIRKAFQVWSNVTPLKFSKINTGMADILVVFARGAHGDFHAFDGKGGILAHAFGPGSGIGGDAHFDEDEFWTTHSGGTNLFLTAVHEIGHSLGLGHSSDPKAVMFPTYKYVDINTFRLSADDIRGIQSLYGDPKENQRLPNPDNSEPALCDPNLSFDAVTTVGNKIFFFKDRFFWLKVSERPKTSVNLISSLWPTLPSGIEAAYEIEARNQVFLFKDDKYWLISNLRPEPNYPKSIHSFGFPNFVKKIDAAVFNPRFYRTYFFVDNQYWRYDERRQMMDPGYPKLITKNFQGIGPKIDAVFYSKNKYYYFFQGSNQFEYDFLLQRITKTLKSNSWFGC", "experiment": "Inhibition of MMP12"}, "[5]": {"experiment": "Half life in C57BL/6 mouse at 30 mg/kg, po", "assay_type": "ADME, organism-based", "design": "dose 30 mg/kg, route oral", "conditions": "in vivo"}, "[6]": {"experiment": "Oral bioavailability in C57BL/6 mouse at 30 mg/kg", "assay_type": "ADME, organism-based", "conditions": "in vivo"}, "[7]": {"experiment": "Volume of distribution at steady state in C57BL/6 mouse at 2 mg/kg, iv", "assay_type": "ADME, organism-based", "design": "dose 2 mg/kg, route intravenous", "conditions": "in vivo, read-out: Vdss"}, "[8]": {"experiment": "Clearance in C57BL/6 mouse at 2 mg/kg, iv", "assay_type": "ADME, organism-based", "design": "dose 2 mg/kg, route intravenous", "conditions": "in vivo"}, "[9]": {"experiment": "Cmax in C57BL/6 mouse at 30 mg/kg, po", "assay_type": "ADME, organism-based", "design": "dose 30 mg/kg, route oral", "conditions": "in vivo"}, "[10]": {"target": "Macrophage metalloelastase (Homo sapiens, UniProt P39900)", "sequence (P39900 whole entry)": "as the sequence (P39900 whole entry, looked up) above", "description": "Inhibition of human recombinant MMP12"}}}
{"smiles": "COC(=O)Nc1ccc2c(c1)sc1cc(S(=O)(=O)N[C@H](C(=O)O)C(C)C)ccc12", "values": [{"measurement": "half-life", "setting": "in vitro [1]", "result": "> 30", "unit": "min"}, {"measurement": "IC50", "setting": "Collagenase 3", "result": 632, "unit": "nM"}, {"measurement": "half-life", "setting": "in vitro [2]", "result": "> 30", "unit": "min"}, {"measurement": "half-life", "setting": "[3]", "result": "> 30", "unit": "min"}]}
{"smiles": "COC(=O)Nc1ccc2oc3cc(S(=O)(=O)N[C@H](C(=O)O)C(C)C)ccc3c2c1", "values": [{"measurement": "half-life", "setting": "in vitro [1]", "result": "> 30", "unit": "min"}, {"measurement": "IC50", "setting": "[4]", "result": 2, "unit": "nM"}, {"measurement": "half-life", "setting": "in vitro [2]", "result": "> 30", "unit": "min"}, {"measurement": "half-life", "setting": "[3]", "result": "> 30", "unit": "min"}]}
{"smiles": "CCNC(=O)Nc1ccc2c(c1)sc1cc(S(=O)(=O)N[C@H](C(=O)O)C(C)C)ccc12", "values": [{"measurement": "half-life", "setting": "in vitro [1]", "result": "> 30", "unit": "min"}, {"measurement": "IC50", "setting": "Collagenase 3", "result": 809, "unit": "nM"}, {"measurement": "half-life", "setting": "in vitro [2]", "result": "> 30", "unit": "min"}, {"measurement": "half-life", "setting": "[3]", "result": "> 30", "unit": "min"}]}
{"smiles": "CC(C)[C@H](NS(=O)(=O)c1ccc2c(c1)sc1cc(NC(=O)NCCc3cccs3)ccc12)C(=O)O", "values": [{"measurement": "half-life", "setting": "in vitro [1]", "result": "> 30", "unit": "min"}, {"measurement": "IC50", "setting": "Collagenase 3", "result": 456, "unit": "nM"}, {"measurement": "half-life", "setting": "in vitro [2]", "result": "> 30", "unit": "min"}, {"measurement": "half-life", "setting": "[3]", "result": "> 30", "unit": "min"}]}
{"smiles": "CC(C)[C@H](NS(=O)(=O)c1ccc2c(c1)sc1cc(N3CCOC3=O)ccc12)C(=O)O", "values": [{"measurement": "half-life", "setting": "in vitro [1]", "result": "> 30", "unit": "min"}, {"measurement": "IC50", "setting": "Collagenase 3", "result": 140, "unit": "nM"}, {"measurement": "half-life", "setting": "in vitro [2]", "result": "> 30", "unit": "min"}, {"measurement": "half-life", "setting": "[3]", "result": "> 30", "unit": "min"}]}
{"smiles": "CC(C)OC(=O)Nc1ccc2c(c1)sc1cc(S(=O)(=O)N[C@H](C(=O)O)C(C)C)ccc12", "values": [{"measurement": "half-life", "setting": "in vitro [1]", "result": "> 30", "unit": "min"}, {"measurement": "IC50", "setting": "Collagenase 3", "result": 147, "unit": "nM"}, {"measurement": "half-life", "setting": "in vitro [2]", "result": "> 30", "unit": "min"}, {"measurement": "half-life", "setting": "[3]", "result": "> 30", "unit": "min"}]}
{"smiles": "CC(C)[C@H](NS(=O)(=O)c1ccc2c(c1)sc1cc(NC(=O)Nc3ccccc3)ccc12)C(=O)O", "values": [{"measurement": "half-life", "setting": "in vitro [1]", "result": "> 30", "unit": "min"}, {"measurement": "IC50", "setting": "Collagenase 3", "result": 269, "unit": "nM"}, {"measurement": "half-life", "setting": "in vitro [2]", "result": "> 30", "unit": "min"}, {"measurement": "half-life", "setting": "[3]", "result": "> 30", "unit": "min"}]}
{"smiles": "COC(=O)Nc1ccc2sc3cc(S(=O)(=O)N[C@@H](C(=O)O)C(C)C)ccc3c2c1", "values": [{"measurement": "half-life", "setting": "[5]", "result": 276, "unit": "min"}, {"measurement": "bioavailability", "setting": "[6]", "result": 19, "unit": "%"}, {"measurement": "half-life", "setting": "in vitro [1]", "result": "> 30", "unit": "min"}, {"measurement": "Vd", "setting": "[7]", "result": 3.7, "unit": "L/kg"}, {"measurement": "IC50", "setting": "Collagenase 3", "result": 1.22, "unit": "nM"}, {"measurement": "clearance", "setting": "[8]", "result": 59.9, "unit": "mL/min/kg"}, {"measurement": "half-life", "setting": "in vitro [2]", "result": "> 30", "unit": "min"}, {"measurement": "Cmax", "setting": "[9]", "result": 738, "unit": "ng/mL"}, {"measurement": "half-life", "setting": "[3]", "result": "> 30", "unit": "min"}]}
{"smiles": "CC(C)[C@@H](NS(=O)(=O)c1ccc2c(c1)sc1cc(NC(=O)Nc3ccccc3)ccc12)C(=O)O", "values": [{"measurement": "half-life", "setting": "in vitro [1]", "result": "> 30", "unit": "min"}, {"measurement": "IC50", "setting": "Collagenase 3", "result": 1290, "unit": "nM"}, {"measurement": "half-life", "setting": "in vitro [2]", "result": "> 30", "unit": "min"}, {"measurement": "half-life", "setting": "[3]", "result": "> 30", "unit": "min"}]}
{"smiles": "COC(=O)Nc1ccc2c(c1)oc1cc(S(=O)(=O)N[C@H](C(=O)O)C(C)C)ccc12", "values": [{"measurement": "half-life", "setting": "in vitro [1]", "result": "> 30", "unit": "min"}, {"measurement": "IC50", "setting": "Collagenase 3", "result": 505, "unit": "nM"}, {"measurement": "half-life", "setting": "in vitro [2]", "result": "> 30", "unit": "min"}, {"measurement": "half-life", "setting": "[3]", "result": "> 30", "unit": "min"}]}
{"smiles": "COC(=O)Nc1ccc2sc3cc(S(=O)(=O)N[C@H](C(=O)O)C(C)C)ccc3c2c1", "values": [{"measurement": "half-life", "setting": "[5]", "result": 186, "unit": "min"}, {"measurement": "bioavailability", "setting": "[6]", "result": 34, "unit": "%"}, {"measurement": "half-life", "setting": "in vitro [1]", "result": "> 30", "unit": "min"}, {"measurement": "Vd", "setting": "[7]", "result": 1.7, "unit": "L/kg"}, {"measurement": "IC50", "setting": "Collagenase 3", "result": 65, "unit": "nM"}, {"measurement": "clearance", "setting": "[8]", "result": 31.2, "unit": "mL/min/kg"}, {"measurement": "half-life", "setting": "in vitro [2]", "result": "> 30", "unit": "min"}, {"measurement": "Cmax", "setting": "[9]", "result": 1820, "unit": "ng/mL"}, {"measurement": "half-life", "setting": "[3]", "result": "> 30", "unit": "min"}]}
{"smiles": "Cc1ccc(OC(=O)Nc2ccc3c(c2)sc2cc(S(=O)(=O)N[C@H](C(=O)O)C(C)C)ccc23)cc1", "values": [{"measurement": "half-life", "setting": "in vitro [1]", "result": "> 30", "unit": "min"}, {"measurement": "IC50", "setting": "Collagenase 3", "result": 235, "unit": "nM"}, {"measurement": "half-life", "setting": "in vitro [2]", "result": "> 30", "unit": "min"}, {"measurement": "half-life", "setting": "[3]", "result": "> 30", "unit": "min"}]}
{"smiles": "CC(C)[C@@H](NS(=O)(=O)c1ccc2sc3cc(NS(C)(=O)=O)ccc3c2c1)C(=O)O", "values": [{"measurement": "IC50", "setting": "Collagenase 3", "result": "> 25000", "unit": "nM"}]}
{"smiles": "CC(C)[C@H](NS(=O)(=O)c1ccc2c(c1)sc1cc(N)ccc12)C(=O)O", "values": [{"measurement": "half-life", "setting": "in vitro [1]", "result": "> 30", "unit": "min"}, {"measurement": "IC50", "setting": "Collagenase 3", "result": "> 1000", "unit": "nM"}, {"measurement": "half-life", "setting": "in vitro [2]", "result": "> 30", "unit": "min"}, {"measurement": "half-life", "setting": "[3]", "result": "> 30", "unit": "min"}]}
{"smiles": "CC(C)[C@H](NS(=O)(=O)c1ccc2c(c1)sc1cc(NC(=O)NC3CCCC3)ccc12)C(=O)O", "values": [{"measurement": "half-life", "setting": "in vitro [1]", "result": "> 30", "unit": "min"}, {"measurement": "IC50", "setting": "[10]", "result": "> 1000", "unit": "nM"}, {"measurement": "IC50", "setting": "Collagenase 3", "result": "> 1000", "unit": "nM"}, {"measurement": "half-life", "setting": "in vitro [2]", "result": "> 30", "unit": "min"}, {"measurement": "half-life", "setting": "[3]", "result": "> 30", "unit": "min"}]}
{"smiles": "CC(C)COC(=O)Nc1ccc2c(c1)sc1cc(S(=O)(=O)N[C@H](C(=O)O)C(C)C)ccc12", "values": [{"measurement": "half-life", "setting": "in vitro [1]", "result": "> 30", "unit": "min"}, {"measurement": "IC50", "setting": "Collagenase 3", "result": 334, "unit": "nM"}, {"measurement": "half-life", "setting": "in vitro [2]", "result": "> 30", "unit": "min"}, {"measurement": "half-life", "setting": "[3]", "result": "> 30", "unit": "min"}]}
{"smiles": "COC(=O)Nc1ccc2c(c1)sc1cc(S(=O)(=O)N[C@@H](C(=O)O)C(C)C)ccc12", "values": [{"measurement": "half-life", "setting": "in vitro [1]", "result": "> 30", "unit": "min"}, {"measurement": "IC50", "setting": "Collagenase 3", "result": 1350, "unit": "nM"}, {"measurement": "half-life", "setting": "in vitro [2]", "result": "> 30", "unit": "min"}, {"measurement": "half-life", "setting": "[3]", "result": "> 30", "unit": "min"}]}
{"smiles": "CC(C)[C@H](NS(=O)(=O)c1ccc2c(c1)oc1cc(NC(=O)NCCc3cccs3)ccc12)C(=O)O", "values": [{"measurement": "half-life", "setting": "in vitro [1]", "result": "> 30", "unit": "min"}, {"measurement": "IC50", "setting": "Collagenase 3", "result": 187, "unit": "nM"}, {"measurement": "half-life", "setting": "in vitro [2]", "result": "> 30", "unit": "min"}, {"measurement": "half-life", "setting": "[3]", "result": "> 30", "unit": "min"}]}
